Measurements reported in US7655420B2, “Methods to increase or decrease bone density” (Celltech R & D, Inc., priority 2002, dated 2010).
“Also recorded” adds a separate entry of the source.

Columns and labels:
SOST expression = experiment: BMP-6 induction of SOST expression in hMSC cells with test compounds (RT-PCR); format: cell-based, human; details: for Results (effect on BMP-6 induction of SOST expression): BMP-6, 72 hrs; for induction of SOST expression by BMP-6 (BMP-induced SOST expression): 72 hrs, no single concentration stated in the sentence
Protocol: The previous example illustrates that SOST expression was enhanced by bone morphogenetic proteins and modulated by steroids such as dexamethasone. In this example, human MSC cells were incubated with bone morphogenetic proteins in the presence of various test agents to determine whether other steroids and compounds could affect the BMP-induction of SOST. SOST expression was monitored by reverse transcriptase polymerase chain reaction (RT-PCR).
Human mesenchymal cells (hMSCs) were plated in regular growth media containing 2% FCS and treated with BMP-6 either alone or in combination with the test compounds. The cells were harvested 72 hrs later and RNA was prepared for RT-PCR analysis of SOST expression.

[1] = tested on: caspase activity in hMSC cells; experiment: apoptosis of hMSC cells by caspase activity (Homogeneous Caspase ELISA); format: cell-based, human; details: for human sclerostin-induced increase in caspase activity, effect of caspase inhibitors / apoptosis of hMSC cells (caspase activity), rat versus human sclerostin: hMSC cells, 24 hrs; for human sclerostin-induced increase in caspase activity, effect of caspase inhibitors: Roche ELISA; for caspase activity: hMSC in osteoblast-inducing media, 20 μg/ml sclerostin or other protein, 24 hours
Protocol: Human mesenchymal (hMSC) cells were plated in Osteoblast-inducing media (Biowhittaker's MSCGM medium supplemented with 100 nM dexamethasone, 50 μg/ml ascorbic acid, and 10 mM β-glycerophosphate) at a density of 10,000 cells/cm^2 in 96-well dishes.
For apoptosis assays, cells were treated with sclerostin or commercially available preparations of the BMP antagonists noggin, chordin, gremlin or twisted gastrulation (Tsg) for 24 hours prior to assay for caspase activity. In some experiments, cells were treated for various times with a partially purified preparation of baculovirus-expressed human sclerostin (0 to 30 μg/ml) or an equal volume of a protein preparation purified from Sf9 conditioned media (control) in the absence or presence of Calbiochem's caspase inhibitors. Cells were harvested and processed for apoptosis assays using the Homogeneous Caspase ELISA (Roche) or Cell Death (Histone-Associated DNA Fragmentation, Roche).

Molecule: O=C1C=C(S(=O)(=O)O)c2ccccc2C1=O [1,2-napthoquinone-4-sulfate]
- Results (effect on BMP-6 induction of SOST expression) (SOST expression; compound at 1 × 10^−6 M): No Effect
- Results (effect on BMP-6 induction of SOST expression) (SOST expression; compound at 5 × 10^−6 M): No Effect

Molecule: COC(=O)C[C@H](NC(=O)[C@H](C)NC(=O)[C@@H](NC(=O)[C@H](Cc1ccc(O)cc1)NC(=O)OCc1ccccc1)C(C)C)C(=O)CF [Caspase-1, Inhibitor VI, reference compound]
- human sclerostin-induced increase in caspase activity, effect of caspase inhibitors [1]: blocked
- human sclerostin-induced increase in caspase activity, effect of caspase inhibitors ([1]; listed as Cas-1): efficiently blocked
- human sclerostin-induced increase in caspase activity, effect of caspase inhibitors ([1]; listed as Caspase-1 inhibitor): effectively blocked

Molecule: CC(=O)N[C@@H](CC(=O)O)C(=O)N[C@@H](CCC(=O)O)C(=O)N[C@H](C(=O)N[C@H](C=O)CC(=O)O)C(C)C [Caspase-3, Inhibitor I, reference compound]
- human sclerostin-induced increase in caspase activity, effect of caspase inhibitors [1]: blocked
- human sclerostin-induced increase in caspase activity, effect of caspase inhibitors ([1]; listed as Cas-3): efficiently blocked
- human sclerostin-induced increase in caspase activity, effect of caspase inhibitors ([1]; listed as Caspase-3 inhibitor): effectively blocked

Molecule: CC1(C)O[C@@H]2C[C@H]3[C@@H]4C[C@H](F)C5=CC(=O)C=C[C@]5(C)[C@@]4(F)[C@@H](O)C[C@]3(C)[C@]2(C(=O)CO)O1 [Fluocinolone acetonide]
- induction of SOST expression by BMP-6 (BMP-induced SOST expression) (SOST expression): blocks
- Results (effect on BMP-6 induction of SOST expression) (SOST expression; compound at 1 × 10^−7 M): Inhibition
- Results (effect on BMP-6 induction of SOST expression) (SOST expression; compound at 1 × 10^−7 M, listed as Fluo): blocked
- Results (effect on BMP-6 induction of SOST expression) (SOST expression; compound at 1 × 10^−7 M, listed as fluocinolone acetonide): effectively blocked

Molecule: C[C@]12CC[C@@H]3c4ccc(O)cc4C[C@@H](CCCCCCCCC[S+]([O-])CCCC(F)(F)C(F)(F)F)[C@H]3[C@@H]1CC[C@@H]2O (stereo partly drawn) [ICI 182,780]
- Results (effect on BMP-6 induction of SOST expression) (SOST expression; compound at 1 × 10^−6 M): minimal effects; also recorded: No Effect

Molecule: CC[C@H](C)C(=O)O[C@H]1C[C@@H](C)C=C2C=C[C@H](C)[C@H](CC[C@@H]3C[C@@H](O)CC(=O)O3)[C@H]21 [Lovastatin/Mevinolin, Lovastatin]
- Results (effect on BMP-6 induction of SOST expression) (SOST expression; compound at 1 × 10^−7 M): No Effect
- Results (effect on BMP-6 induction of SOST expression) (SOST expression; compound at 1 × 10^−7 M, listed as lovastatin): minimal effects

Molecule: COc1cccc(-c2cc(=O)c3ccccc3o2)c1N [PD98059]
- Results (effect on BMP-6 induction of SOST expression) (SOST expression; compound at 2 × 10^−6 M): No Effect

Molecule: CCCCC[C@H](O)/C=C/[C@H]1[C@H](O)CC(=O)[C@@H]1C/C=C\CCCC(=O)O [Prostaglandin E2]
- induction of SOST expression by BMP-6 (BMP-induced SOST expression) (SOST expression): blocks
- Results (effect on BMP-6 induction of SOST expression) (SOST expression; compound at 1 × 10^−6 M): Inhibition
- Results (effect on BMP-6 induction of SOST expression) (SOST expression; compound at 1 × 10^−6 M, listed as PGE2): blocked
- Results (effect on BMP-6 induction of SOST expression) (SOST expression; compound at 1 × 10^−6 M, listed as prostaglandin E2): effectively blocked
- Results (effect on BMP-6 induction of SOST expression) (SOST expression; compound at 1 × 10^−7 M): Inhibition

Molecule: CCc1[nH]c(-c2ccc(OC)cc2)nc1-c1ccncc1 [SB202474]
- Results (effect on BMP-6 induction of SOST expression) (SOST expression; compound at 2 × 10^−6 M): No Effect

Molecule: C[S+]([O-])c1ccc(-c2nc(-c3ccncc3)c(-c3ccc(F)cc3)[nH]2)cc1 (stereo not drawn) [SB203580]
- Results (effect on BMP-6 induction of SOST expression) (SOST expression; compound at 2 × 10^−6 M): No Effect

Molecule: CC(=O)S[C@@H]1CC2=CC(=O)CC[C@]2(C)[C@H]2CC[C@@]3(C)[C@@H](CC[C@@]34CCC(=O)O4)[C@H]12 [Spironolactone]
- Results (effect on BMP-6 induction of SOST expression) (SOST expression; compound at 1 × 10^−6 M): No Effect
- Results (effect on BMP-6 induction of SOST expression) (SOST expression; compound at 1 × 10^−7 M): No Effect

Molecule: C[C@H](CCC(=O)NCCS(=O)(=O)O)[C@H]1CC[C@H]2[C@@H]3[C@@H](O)C[C@@H]4C[C@H](O)CC[C@]4(C)[C@H]3CC[C@]12C [Tauroursodeoxycholic acid]
- Results (effect on BMP-6 induction of SOST expression) (SOST expression; compound at 2 × 10^−6 M): No Effect
- Results (effect on BMP-6 induction of SOST expression) (SOST expression; compound at 2 × 10^−6 M, listed as tauroursodeoxycholic acid): minimal effects
- Results (effect on BMP-6 induction of SOST expression) (SOST expression; compound at 2 × 10^−7 M): No Effect

Molecule: C[C@]12C=CC(=O)C=C1CC[C@H]1[C@@H]3C[C@@H](O)[C@](O)(C(=O)CO)[C@@]3(C)C[C@H](O)[C@@]12F [Triamcinolone]
- induction of SOST expression by BMP-6 (BMP-induced SOST expression) (SOST expression): blocks
- Results (effect on BMP-6 induction of SOST expression) (SOST expression; compound at 1 × 10^−7 M): blocked; also recorded: Inhibition
- Results (effect on BMP-6 induction of SOST expression) (SOST expression; compound at 1 × 10^−7 M, listed as triamcinolone): blocked

Molecule: Parathyroid Hormone (1-34): Calciotrophic Peptide (SVSEIQLMHNLGKHLNSMERVEWLRKKLQDVHNF; Parathyroid hormone; UniProt P01270 32-65, looked up, fragment)
- Results (effect on BMP-6 induction of SOST expression) (SOST expression; compound at 1 × 10^−7 M): No Effect

B1: Tsg: twisted gastrulation, commercially available BMP antagonist (protein, UniProt Q9GZX9 26-223, looked up)
Twisted gastrulation protein …: CNKALCASDVSKCLIQELCQCRPGEGNCSCCKECMLCLGALWDECCDCVGMCNPRNYSDTPPTSKSTVEELHEPIPSLFRALTEGDTQLNWNIVSFPVAEELSHHENLVSFLETVNQPHHQNVSVPSNNVHAPYSSDKEHMCTVVYFDDCMSIHQCKISCESMGASKYRWFHNACCECIGPECIDYGSKTVKCMNCMF
- caspase activity [1]: no increase; also recorded: no significant effect

B2: gremlin: commercially available BMP antagonist (protein, UniProt O60565 25-184, looked up)
Gremlin-1: KKKGSQGAIPPPDKAQHNDSEQTQSPQQPGSRNRGRGQGRGTAMPGEEVLESSQEALHVTERKYLKRDWCKTQPLKQTIHEEGCNSRTIINRFCYGQCNSFYIPRHIRKEEGSFQSCSFCKPKKFTTMMVTLNCPELQPPTKKKRVTRVKQCRCISIDLD
- caspase activity [1]: no increase; also recorded: no significant effect

B3: rat sclerostin: rat sclerostin protein (SEQ ID NO:8) (protein, listed as Rattus norvegicus)
chain: MQLSLAPCLACLLVHAAFVAVESQGWQAFKNDATEIIPGLREYPEPPQELENNQTMNRAENGGRPPHHPYDTKDVSEYSCRELHYTRFVTDGPCRSAKPVTELVCSGQCGPARLLPNAIGRVKWWRPNGPDFRCIPDRYRAQRVQLLCPGGAAPRSRKVRLVASCKCKRLTRFHNQSELKDFGPETARPQKGRKPRPRARGAKANQAELENAY
- apoptosis of hMSC cells (caspase activity), rat versus human sclerostin [1]: induced the apoptosis
- apoptosis of hMSC cells (caspase activity), rat versus human sclerostin ([1]; listed as Rat sclerostin): increased the apoptosis of hMSC cells but to a lesser extent

B4: chordin: commercially available BMP antagonist (protein, UniProt Q9H2X0 27-955, looked up)
Chordin: AGPEPPVLPIRSEKEPLPVRGAAGCTFGGKVYALDETWHPDLGEPFGVMRCVLCACEAPQWGRRTRGPGRVSCKNIKPECPTPACGQPRQLPGHCCQTCPQERSSSERQPSGLSFEYPRDPEHRSYSDRGEPGAEERARGDGHTDFVALLTGPRSQAVARARVSLLRSSLRFSISYRRLDRPTRIRFSDSNGSVLFEHPAAPTQDGLVCGVWRAVPRLSLRLLRAEQLHVALVTLTHPSGEVWGPLIRHRALAAETFSAILTLEGPPQQGVGGITLLTLSDTEDSLHFLLLFRGLLEPRSGGLTQVPLRLQILHQGQLLRELQANVSAQEPGFAEVLPNLTVQEMDWLVLGELQMALEWAGRPGLRISGHIAARKSCDVLQSVLCGADALIPVQTGAAGSASLTLLGNGSLIYQVQVVGTSSEVVAMTLETKPQRRDQRTVLCHMAGLQPGGHTAVGICPGLGARGAHMLLQNELFLNVGTKDFPDGELRGHVAALPYCGHSARHDTLPVPLAGALVLPPVKSQAAGHAWLSLDTHCHLHYEVLLAGLGGSEQGTVTAHLLGPPGTPGPRRLLKGFYGSEAQGVVKDLEPELLRHLAKGMASLMITTKGSPRGELRGQVHIANQCEVGGLRLEAAGAEGVRALGAPDTASAAPPVVPGLPALAPAKPGGPGRPRDPNTCFFEGQQRPHGARWAPNYDPLCSLCTCQRRTVICDPVVCPPPSCPHPVQAPDQCCPVCPEKQDVRDLPGLPRSRDPGEGCYFDGDRSWRAAGTRWHPVVPPFGLIKCAVCTCKGGTGEVHCEKVQCPRLACAQPVRVNPTDCCKQCPVGSGAHPQLGDPMQADGPRGCRFAGQWFPESQSWHPSVPPFGEMSCITCRCGAGVPHCERDDCSLPLSCGSGKESRCCSRCTAHRRPAPETRTDPELEKEAEGS
- caspase activity [1]: no increase; also recorded: no significant effect

B5: inactivated sclerostin: inactive preparation of sclerostin, as determined by lack of effects in other biological and biochemical assays (protein, UniProt Q9BQB4 24-213, looked up)
Sclerostin: QGWQAFKNDATEIIPELGEYPEPPPELENNKTMNRAENGGRPPHHPFETKDVSEYSCRELHFTRYVTDGPCRSAKPVTELVCSGQCGPARLLPNAIGRGKWWRPSGPDFRCIPDRYRAQRVQLLCPGGEAPRARKVRLVASCKCKRLTRFHNQSELKDFGTEAARPQKGRKPRPRARSAKANQAELENAY
modifications: inactivated preparation
- caspase activity [1]: no significant effect
- caspase activity ([1]; listed as inactive preparation of sclerostin): did not significantly affect
